Results: patent publication US20220362405A1, “COMPOSITIONS AND METHODS FOR TREATING LIVER DISEASE” (UNIVERSITY OF PITTSBURGH-OF THE COMMONWEALTH SYSTEM OF …, priority 2019, published 2022)

Test system: AKT
Test: AKT inhibition in normal human hepatocytes (western blot)
Assay type: cell-based
Conditions: 5 μM MK-2206, 24 hours, freshly isolated normal human hepatocytes, preliminary experiments
Excerpt: Protein extraction and Western blotting. To perform the protein expression analysis, the isolated hepatocytes were divided in two fractions; one fraction was used for total protein extraction, according to standard procedures previously described (Bell A W et al., 2006) and the other fraction was used for nuclear protein isolation. For nuclear protein isolation, between 1×10^7 and 5×10^7 isolated hepatocytes per patient were washed and harvested in 40 mmol/L Tris (pH 7.6), 14 mmol/L NaCl, and 1 mmol/L EDTA, then centrifuged (5 min, 100g). Cell pellets were suspended in 2 mL of hypotonic buffer [10 mmol/L HEPES (pH 7.9), 10 mmol/L NaH2PO4, 1.5 mmol/L MgCl2, 1 mmol/L DTT, 0.5 mmol/L spermidine, and […] with protease and phosphatase inhibitor cocktails (Sigma, St. Louis, Mo.)]. Following 10 minutes of incubation on ice, samples were homogenized in a Dounce homogenizer and then centrifuged (5 min, 800 g). Cell lysis was monitored with trypan blue stain. Supernatants were saved as cytoplasmic extracts. The nuclei pellets were washed two additional times in the same buffer.
Nuclear proteins were extracted in 50-100 μL of hypertonic buffer [30 mmol/L HEPES (pH 7.9), 25% glycerol, 450 mmol/L NaCl, 12 mmol/L MgCl2, 1 mmol/L DTT, and 0.1 mmol/L EDTA with protease and phosphatase inhibitor cocktails (Sigma, St. Louis, Mo.)] for 45 minutes at 4° C. with continuous agitation. Extracts were centrifuged at 30,000 g, and the supernatants were collected and dialyzed for 2 hours against the same solution but containing 150 mmol/L NaCl. Protein concentration was determined by the Bicinchoninic Acid assay (Sigma, St. Louis, Mo.).
Western blot analysis performed according to standard procedures (Natarajan A et al., 2007). The intensity of each protein band was quantitated using National Institutes of Health Image J software. The primary antibodies and its dilutions are listed in the above shown Table 2.
AKT Inhibition in Normal Human Hepatocytes. Normal human hepatocytes (1 million cells/well) were cultured on collagen-coated wells. […]

Question: Which “acetylated nuclear HNF4α expression reduced compared with nontreated controls” value does the source give for `NC1(c2ccc(-c3nc4ccn5c(=O)[nH]nc5c4cc3-c3ccccc3)cc2)CCC1` [MK-2206] here?
Answer: 14%

Question: And the “activated AKT(Thr308) expression reduced compared with nontreated controls” value?
Answer: 80%

Question: And the “nuclear HNF4α expression reduced compared with nontreated controls” value?
Answer: 25%
